# Experimental data from US10155027B2, “Alpha-galactosidase A and 1-deoxygalactonojirimycin co-formulation for the treatment of fabry disease” (Amicus Therapeutics, Inc., priority 2012, dated 2018).
# Structures can show the parent of a compound that is named as a salt. Where two headings read alike, the source gives them in different places.
# What was measured:
# [1] = General toxicology NOAEL, monkey; type: in vivo
# α-Gal A = target: T1, α-Gal A (Homo sapiens, UniProt P06280); assay: α-Gal A stability in whole blood ex vivo at 37° C.; type: in vitro ADME; details: 5 nM and 50 nM α-Gal A formulated with 10 μM DGJ
# T1 construct: purchased JCR Pharmaceuticals Co. Ltd, (Japan) JR-051; host or cells: CHO cells
# T1 sequence (P06280 32-429): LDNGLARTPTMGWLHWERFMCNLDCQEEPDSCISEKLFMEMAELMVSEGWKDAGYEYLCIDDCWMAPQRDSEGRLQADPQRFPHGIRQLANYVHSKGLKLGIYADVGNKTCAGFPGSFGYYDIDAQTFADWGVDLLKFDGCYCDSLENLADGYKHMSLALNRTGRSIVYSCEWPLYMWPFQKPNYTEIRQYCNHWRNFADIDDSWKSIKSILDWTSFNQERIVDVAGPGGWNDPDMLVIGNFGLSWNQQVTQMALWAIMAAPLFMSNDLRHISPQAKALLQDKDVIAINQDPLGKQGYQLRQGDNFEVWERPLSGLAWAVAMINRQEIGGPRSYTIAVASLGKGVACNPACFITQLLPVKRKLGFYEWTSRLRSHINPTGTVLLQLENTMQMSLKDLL
# Protocol: The effect of co-formulating α-Gal A with DGJ on α-Gal A stability in blood ex vivo was examined. Time-dependent loss of α-Gal A activity in whole blood at 37° C. was determined. 5 nM and 50 nM α-Gal A was formulated with or without 10 μM DGJ.
# [2] = Phase 1 crossover absolute bioavailability, 150 mg oral capsule vs 150 mg IV infusion (Cohort 4); type: in vivo, human; details: for Vd: iv, 150 mg; for Cmax: read-out: Cmax (geometric mean); for AUC(0-t): read-out: AUC0-t (geometric mean); for AUC(0-inf): read-out: AUC0-∞ (geometric mean); for Tmax: read-out: tmax (median); for half-life: read-out: t½ (arithmetic mean) (converted)
# Protocol: Healthy volunteers received migalastat HCl (DGJ HCl) via the intravenous (IV) route of administration to evaluate safety, tolerability, and pharmacokinetics. Another study was performed to determine the absolute bioavailability of migalastat after an oral capsule dose as compared to an IV administered dose of migalastat HCl in healthy volunteers. The absolute bioavailability arm was added to determine the exposure ratio of a 150 mg oral dose relative to a 150 mg dose administered as an IV infusion.
# Type of Study: This Phase 1 study was a single-center study consisting of 2 designs. Cohorts 1, 2, and 3 were performed according to a randomized, double-blind, placebo-controlled, single ascending dose (SAD) IV study design to evaluate the safety, tolerability, and PK of IV administered migalastat HCl or IV administered placebo in healthy subjects. Cohort 4 was an open-label, randomized two-way crossover arm designed to assess the absolute bioavailability of orally administered migalastat HCl relative to IV administered migalastat HCl in healthy subjects.
# Cohort 4 consisted of 2 sequential treatment periods with a washout period of 7 days between study drug administrations (FIG. 13). Cohort 4 enrolled 10 subjects all of whom received active drug (no placebo was administered). Cohort 4 was randomized such that 5 subjects received the oral formulation and 5 subjects received the IV formulation during Period 1, followed by the alternate formulation during Period 2. • * During Period 1, all Day −1 through Day 3 assessments were performed. ** The washout period was 7 days. *** During Period 2, subjects repeated all Day −1 through Day 3 assessments.
# Cohort 4: Period 1: 150 mg migalastat HCl capsule (n=5) or 150 mg migalastat HCl via IV infusion (n=5). Period 2: 150 mg migalastat HCl capsule (n=5) or 150 mg migalastat HCl via IV infusion (n=5)
# The migalastat HCl used for infusion was 50 mg/ml and the placebo was 0.9% sodium chloride. The oral migalastat HCl was administered as a 150 mg gelatin […].
# [3] = Phase 2a study of oral migalastat HCl co-administered with agalsidase in Fabry patients; type: in vivo, human; details: 23 Fabry patients; single oral 150 mg with 0.2, 0.5, and 1.0 mg/kg agalsidase
# [4] = not given; remark: listed apart in the source
# [5] = predicted human exposure at 0.3 mg/kg IV
# [6] = predicted human exposure at 10.0 mg/kg IV
# [7] = predicted exposure at 0.3 mg/kg IV
# [8] = predicted exposure at 10.0 mg/kg IV
compound,measurement,setting,value
"OC[C@H]1NC[C@H](O)[C@@H](O)[C@H]1O [migalastat HCl, (2R,3S,4R,5S)-2-(hydroxymethyl) piperdine-3,4,5-triol]",AUC,"[1]; monkey, in vivo, 500 mg/kg/day",30600 ng·h/mL
same,Cmax,"[1]; monkey, in vivo, 500 mg/kg/day",24500 ng/mL
same,NOAEL,"[1]; monkey, in vivo, general toxicology",500 mg/kg/day
same,"Fold Cover to NOAEL AUC, Monkey",[1]; [5],165
same,"Fold Cover to NOAEL Cmax, Monkey",[1]; [5],68
same,"Fold Cover to NOAEL AUC, Monkey",[1]; [6],4.98
same,"Fold Cover to NOAEL Cmax, Monkey",[1]; [6],2.02
same,effect on α-Gal A stability in whole blood,α-Gal A,stabilized the enzyme and prevented enzyme inactivation
same,CLT (arithmetic mean),[2]; 150 mg IV,9.34 L/h
same,"geometric mean AUC0-t and AUC0-∞, IV relative to oral",[2]; 150 mg IV vs 150 mg oral,approximately 1.3 fold
same,"geometric mean Cmax, IV relative to oral",[2]; 150 mg IV vs 150 mg oral,approximately 1.9 fold
same,"maximum arithmetic mean plasma concentrations, IV relative to oral",[2]; 150 mg IV vs 150 mg oral,approximately 2 fold
same,CLT/F (arithmetic mean),[2]; 150 mg oral,12.8 L/h
same,absolute oral bioavailability based on AUC0-t (Percentage Test/Reference),[2]; 150 mg oral vs 150 mg IV,74.3%
same,absolute oral bioavailability based on AUC0-∞ (Percentage Test/Reference),[2]; 150 mg oral vs 150 mg IV,74.6%
same,Vd,"[2]; human, plasma, 150 mg IV, read-out: Vss (arithmetic mean)",30.2 L
same,Vd,"[2]; human, plasma, 150 mg IV, read-out: Vz (arithmetic mean)",59.4 L
same,Cmax,"[2]; human, plasma, 150 mg IV, 2-hour infusion",3380 ng/mL
same,AUC(0-t),"[2]; human, plasma, 150 mg IV",13200 ng·h/mL
same,AUC(0-inf),"[2]; human, plasma, 150 mg IV",13300 ng·h/mL
same,Tmax,"[2]; human, plasma, 150 mg IV",1.93 h
same,half-life,"[2]; human, plasma, 150 mg IV",4.54 h
same,AUC(0-t),"[2]; human, plasma, 150 mg oral",9780 ng·h/mL
same,AUC(0-inf),"[2]; human, plasma, 150 mg oral",9880 ng·h/mL
same,Cmax,"[2]; human, plasma, 150 mg oral",1790 ng/mL
same,Vd/F,"[2]; human, plasma, 150 mg oral, read-out: Vz/F (arithmetic mean)",123 L
same,Tmax,"[2]; human, plasma, 150 mg oral",2.75 h
same,half-life,"[2]; human, plasma, 150 mg oral",7.28 h
same,"Fold Cover to AUC from human oral 1250 mg, Max",[7],62
same,"Fold Cover to AUC from human oral 1250 mg, Median",[7],39
same,"Fold Cover to AUC from human oral 1250 mg, Min",[7],15.5
same,"Fold Cover to Cmax from human oral 1250 mg, Max",[7],61
same,"Fold Cover to Cmax from human oral 1250 mg, Median",[7],36
same,"Fold Cover to Cmax from human oral 1250 mg, Min",[7],2.6
same,"Fold Cover to AUC from human oral 1250 mg, Max",[8],1.89
same,"Fold Cover to AUC from human oral 1250 mg, Median",[8],1.19
same,"Fold Cover to AUC from human oral 1250 mg, Min",[8],0.47
same,"Fold Cover to Cmax from human oral 1250 mg, Max",[8],1.81
same,"Fold Cover to Cmax from human oral 1250 mg, Median",[8],1.07
same,"Fold Cover to Cmax from human oral 1250 mg, Min",[8],0.08
same,tissue uptake of active α-Gal A into skin,[3],improved tissue uptake of active α-Gal A into skin
same,tolerability,"[4]; oral 150 mg capsule, healthy volunteers and Fabry patients",well tolerated
same,linearity of exposure,[4]; oral administrations,linear exposures to 1250 mg
same,tolerability,"[4]; single dose administrations up to 2000 mg, healthy volunteers, Phase 1",well tolerated
